These are literature values, as cited in patent US20240239832A1, “A PROCESS FOR THE PREPARATION OF N4-HYDROXYCYTIDINE AND ITS DERIVATIVES” (priority 2021, published 2024).

Molecules are shown by their SMILES.

The test system of one data set is SARS-CoV-2. Particulars: Vero cells; read-out: IC50, inhibition of replication of SARS-CoV-2.
In data set [1] the test system is remdesivir-resistant strains of the model CoV mouse hepatitis virus (MHV). To be noted: infected DBT cells.
The subject of data set [2] is acute respiratory syndrome coronavirus (SARS-CoV). Particulars: read-out: IC50, inhibition of replication of SARS-CoV.
Data set [3] concerns Venezuelan equine encephalitis virus (VEEV) TC-83. Particulars: read-out: EC50, reduction of viral titers of VEEV TC-83.
The subject of data set [4] is Middle East respiratory syndrome coronavirus (MERS-CoV). Particulars: read-out: IC50, inhibition of replication of MERS-CoV.

As a reminder, the IC50 is the concentration that inhibits the measured activity by half. Broadly, the EC50 is the concentration needed to bring the measured effect to its halfway point. For `O=c1nc(NO)ccn1[C@@H]1O[C@H](CO)[C@@H](O)[C@H]1O` [EIDD-1931, 1-(3,4-dihydroxy-5-(hydroxymethyl)tetrahydrofuran-2-yl)-4-(hydroxyamino)pyrimidin-2(1H)-one], the IC50 was 300 nM with SARS-CoV-2, 100 nM in data set [2] and 150 nM in data set [4]. Also, the “reduction of viral titers of remdesivir-resistant MHV” value in data set [1] is listed as “reduces viral titers”. The EC50 in data set [3] was 426 nM.
